In brackets after ≈: the same amount, converted by molar mass. Activity calls are given as the source filed them. The calls are words filed in the database; no cut-off is given here.
Key:
[1] = system: Enterobacter cloacae; assay: Inhibition of Metallo-beta-lactamase IMP-1 in Enterobacter cloacae clinical isolate assessed as MIC for meropenem antibacterial activity at 32 ug/ml (Rvb =16 ug/ml); details: dose 32.0 µg/ml
[2] = system: Enterobacter cloacae; assay: Inhibition of Metallo-beta-lactamase IMP-1 in Enterobacter cloacae clinical isolate assessed as MIC for meropenem antibacterial activity at 64 ug/ml (Rvb =16 ug/ml); details: dose 64.0 µg/ml
[3] = system: Enterobacter cloacae; assay: Inhibition of Metallo-beta-lactamase IMP-1 in Enterobacter cloacae clinical isolate assessed as MIC for meropenem antibacterial activity at 128 ug/ml (Rvb =16 ug/ml); details: dose 128.0 µg/ml
[4] = system: Klebsiella pneumoniae; assay: Inhibition of Metallo-beta-lactamase IMP-28 in Klebsiella pneumoniae clinical isolate assessed as MIC for meropenem antibacterial activity at 32 ug/ml (reference value: 4 ug/ml); details: dose 32.0 µg/ml
[5] = system: Klebsiella pneumoniae; assay: Inhibition of Metallo-beta-lactamase IMP-28 in Klebsiella pneumoniae clinical isolate assessed as MIC for meropenem antibacterial activity at 64 ug/ml (reference value: 4 ug/ml); details: dose 64.0 µg/ml
[6] = system: Klebsiella pneumoniae; assay: Inhibition of Metallo-beta-lactamase IMP-28 in Klebsiella pneumoniae clinical isolate assessed as MIC for meropenem antibacterial activity at 128 ug/ml (reference value: 4 ug/ml); details: dose 128.0 µg/ml
[7] = system: Escherichia coli; assay: Inhibition of Metallo-beta-lactamase VIM-2 in Escherichia coli clinical isolate assessed as MIC for meropenem antibacterial activity at 32 ug/ml (reference value: 8 ug/ml); details: dose 32.0 µg/ml
[8] = system: Escherichia coli; assay: Inhibition of Metallo-beta-lactamase VIM-2 in Escherichia coli clinical isolate assessed as MIC for meropenem antibacterial activity at 64 ug/ml (reference value: 8 ug/ml); details: dose 64.0 µg/ml
[9] = system: Escherichia coli; assay: Inhibition of Metallo-beta-lactamase VIM-2 in Escherichia coli clinical isolate assessed as MIC for meropenem antibacterial activity at 128 ug/ml (reference value: 8 ug/ml); details: dose 128.0 µg/ml
[10] = system: Escherichia coli; assay: Inhibition of Metallo-beta-lactamase NDM-1 in Escherichia coli clinical isolate assessed as MIC for meropenem antibacterial activity at 32 ug/ml (reference value: 32 ug/ml); details: dose 32.0 µg/ml
[11] = system: Escherichia coli; assay: Inhibition of Metallo-beta-lactamase NDM-1 in Escherichia coli clinical isolate assessed as MIC for meropenem antibacterial activity at 64 ug/ml (reference value: 32 ug/ml); details: dose 64.0 µg/ml
[12] = system: Escherichia coli; assay: Inhibition of Metallo-beta-lactamase NDM-1 in Escherichia coli clinical isolate assessed as MIC for meropenem antibacterial activity at 128 ug/ml (reference value: 32 ug/ml); details: dose 128.0 µg/ml
[13] = Stability of the compound in Muller hinton broth assessed compound remaining measured after 15 hrs by HPLC analysis; assay type: physicochemical; details: Mueller Hinton broth, read-out: Stability
[14] = system: Enterobacter cloacae; assay: Antibacterial activity against beta-lactamase IMP1 producing Enterobacter cloacae clinical isolate measured upto 128 ug/ml; assay type: functional, organism-based
[15] = system: Klebsiella pneumoniae; assay: Antibacterial activity against beta-lactamase IMP-28 producing Klebsiella pneumoniae clinical isolate measured upto 128 ug/ml; assay type: functional, organism-based
[16] = system: Escherichia coli; assay: Antibacterial activity against beta-lactamase VIM2 producing Escherichia coli clinical isolate measured upto 128 ug/ml; assay type: functional, organism-based
[17] = Inhibition of Enterobacter cloacae IMP-1 using nitrocefin chromogenic substrate measured after 15 to 60 min at 25 degC by microplate reader
[18] = Inhibition of Klebsiella pneumoniae beta-lactamase IMP-28 using nitrocefin chromogenic substrate measured after 15 to 60 min at 25 degC by microplate reader
[19] = Inhibition of Escherichia coli beta-lactamase NDM-1 using nitrocefin chromogenic substrate measured after 15 to 60 min at 25 degC by microplate reader
[20] = Inhibition of Escherichia coli beta-lactamase VIM-2 using nitrocefin chromogenic substrate measured after 15 to 60 min at 25 degC by microplate reader
[21] = system: Enterobacter cloacae; assay: Inhibition of Metallo-beta-lactamase IMP-1 in Enterobacter cloacae clinical isolate assessed as fold reduction in meropenem MIC at 32 ug/ml; details: dose 32.0 µg/ml
[22] = system: Enterobacter cloacae; assay: Inhibition of Metallo-beta-lactamase IMP-1 in Enterobacter cloacae clinical isolate assessed as fold reduction in meropenem MIC at 64 ug/ml; details: dose 64.0 µg/ml
[23] = system: Enterobacter cloacae; assay: Inhibition of Metallo-beta-lactamase IMP-1 in Enterobacter cloacae clinical isolate assessed as fold reduction in meropenem MIC at 128 ug/ml; details: dose 128.0 µg/ml
[24] = system: Klebsiella pneumoniae; assay: Inhibition of Metallo-beta-lactamase IMP-28 in Klebsiella pneumoniae clinical isolate assessed as fold reduction in meropenem MIC at 32 ug/ml; details: dose 32.0 µg/ml
[25] = system: Klebsiella pneumoniae; assay: Inhibition of Metallo-beta-lactamase IMP-28 in Klebsiella pneumoniae clinical isolate assessed as fold reduction in meropenem MIC at 64 ug/ml; details: dose 64.0 µg/ml
[26] = system: Klebsiella pneumoniae; assay: Inhibition of Metallo-beta-lactamase IMP-28 in Klebsiella pneumoniae clinical isolate assessed as fold reduction in meropenem MIC at 128 ug/ml; details: dose 128.0 µg/ml
[27] = system: Escherichia coli; assay: Inhibition of Metallo-beta-lactamase VIM-2 in Escherichia coli clinical isolate assessed as fold reduction in meropenem MIC at 32 ug/ml; details: dose 32.0 µg/ml
[28] = system: Escherichia coli; assay: Inhibition of Metallo-beta-lactamase VIM-2 in Escherichia coli clinical isolate assessed as fold reduction in meropenem MIC at 64 ug/ml; details: dose 64.0 µg/ml
[29] = system: Escherichia coli; assay: Inhibition of Metallo-beta-lactamase VIM-2 in Escherichia coli clinical isolate assessed as fold reduction in meropenem MIC at 128 ug/ml; details: dose 128.0 µg/ml
[30] = system: Escherichia coli; assay: Inhibition of Metallo-beta-lactamase NDM-1 in Escherichia coli clinical isolate assessed as fold reduction in meropenem MIC at 32 ug/ml; details: dose 32.0 µg/ml
[31] = system: Escherichia coli; assay: Inhibition of Metallo-beta-lactamase NDM-1 in Escherichia coli clinical isolate assessed as fold reduction in meropenem MIC at 64 ug/ml; details: dose 64.0 µg/ml
[32] = system: Escherichia coli; assay: Inhibition of Metallo-beta-lactamase NDM-1 in Escherichia coli clinical isolate assessed as fold reduction in meropenem MIC at 128 ug/ml; details: dose 128.0 µg/ml
[33] = system: Escherichia coli; assay: Antibacterial activity against beta-lactamase NDM1 producing Escherichia coli clinical isolate measured upto 128 ug/ml; assay type: functional, organism-based
[34] = system: Enterobacter cloacae; assay: Inhibition of Metallo-beta-lactamase IMP-1 in Enterobacter cloacae clinical isolate assessed as MIC for meropenem antibacterial activity at 32 ug/ml (reference value: 32 ug/ml); details: dose 32.0 µg/ml
[35] = system: Enterobacter cloacae; assay: Inhibition of Metallo-beta-lactamase IMP-1 in Enterobacter cloacae clinical isolate assessed as MIC for meropenem antibacterial activity at 64 ug/ml (reference value: 32 ug/ml); details: dose 64.0 µg/ml
[36] = system: Enterobacter cloacae; assay: Inhibition of Metallo-beta-lactamase IMP-1 in Enterobacter cloacae clinical isolate assessed as MIC for meropenem antibacterial activity at 128 ug/ml (reference value: 32 ug/ml); details: dose 128.0 µg/ml
[37] = system: Klebsiella pneumoniae; assay: Inhibition of Metallo-beta-lactamase IMP-28 in Klebsiella pneumoniae clinical isolate assessed as MIC for meropenem antibacterial activity at 32 ug/ml (reference value: 2 ug/ml); details: dose 32.0 µg/ml
[38] = system: Klebsiella pneumoniae; assay: Inhibition of Metallo-beta-lactamase IMP-28 in Klebsiella pneumoniae clinical isolate assessed as MIC for meropenem antibacterial activity at 64 ug/ml (reference value: 2 ug/ml); details: dose 64.0 µg/ml
[39] = system: Klebsiella pneumoniae; assay: Inhibition of Metallo-beta-lactamase IMP-28 in Klebsiella pneumoniae clinical isolate assessed as MIC for meropenem antibacterial activity at 128 ug/ml (reference value: 2 ug/ml); details: dose 128.0 µg/ml
[40] = system: Escherichia coli; assay: Inhibition of Metallo-beta-lactamase VIM-2 in Escherichia coli clinical isolate assessed as MIC for meropenem antibacterial activity at 32 ug/ml (reference value: 4 ug/ml); details: dose 32.0 µg/ml
[41] = system: Escherichia coli; assay: Inhibition of Metallo-beta-lactamase VIM-2 in Escherichia coli clinical isolate assessed as MIC for meropenem antibacterial activity at 64 ug/ml (reference value: 4 ug/ml); details: dose 64.0 µg/ml
[42] = system: Escherichia coli; assay: Inhibition of Metallo-beta-lactamase VIM-2 in Escherichia coli clinical isolate assessed as MIC for meropenem antibacterial activity at 128 ug/ml (reference value: 4 ug/ml); details: dose 128.0 µg/ml
[43] = system: Klebsiella pneumoniae; assay: Substrate activity at Klebsiella pneumoniae beta-lactamase IMP-28 assessed as compound hydrolysis by measuring Km by Michaelis-Menten analysis
[44] = system: Klebsiella pneumoniae; assay: Substrate activity at Klebsiella pneumoniae beta-lactamase IMP-28 assessed as compound hydrolysis by measuring Kcat by Michaelis-Menten analysis
[45] = system: Klebsiella pneumoniae; assay: Substrate activity at Klebsiella pneumoniae beta-lactamase IMP-28 assessed as compound hydrolysis by measuring Kcat/Km by Michaelis-Menten analysis

For `O=C(Cc1ccccc1)N[C@@H]1C(=O)N2C(C(=O)O)=C(CSCC(=O)c3ccccc3)CS[C@H]12`, the MIC [1] was 8 µg/mL (≈ 16.6 µM), the MIC [2] was 8 µg/mL (≈ 16.6 µM) and the MIC [3] was 4 µg/mL (≈ 8.29 µM). It also gave an MIC [4] of 1 µg/mL (≈ 2.07 µM), an MIC [5] of 0.5 µg/mL (≈ 1.04 µM) and an MIC [6] of 0.25 µg/mL (≈ 0.518 µM). It also gave an MIC [7] of 8 µg/mL (≈ 16.6 µM), an MIC [8] of 4 µg/mL (≈ 8.29 µM) and an MIC [9] of 4 µg/mL (≈ 8.29 µM). For the same molecule, the MIC [10] was 16 µg/mL (≈ 33.2 µM), the MIC [11] was 8 µg/mL (≈ 16.6 µM) and the MIC [12] was 8 µg/mL (≈ 16.6 µM). For the same molecule, the remaining at 15 h [13] was greater than 95%, the Activity [14] was “inactive” and the Activity [15] was “inactive”. For the same molecule, the Activity [16] was “inactive”, the IC50 [17] was 3.3 µM and the IC50 [18] was 14 µM. The IC50 [19] was 77 µM, the IC50 [20] was 76 µM and the fold change (FC) [21] was 2. The fold change (FC) [22] was 2, the fold change (FC) [23] was 4 and the fold change (FC) [24] was 4. The fold change (FC) [25] was 8, the fold change (FC) [26] was 16 and the fold change (FC) [27] was 1. The fold change (FC) [28] was 2, the fold change (FC) [29] was 2 and the fold change (FC) [30] was 2. For the same molecule, the fold change (FC) [31] was 4, the fold change (FC) [32] was 4 and the Activity [33] was “inactive”.

For `O=C(O)c1cccc(C(=O)O)n1` [DIPICOLINIC ACID], the MIC [10] was 0.5 µg/mL (≈ 2.99 µM), the MIC [11] was 0.5 µg/mL (≈ 2.99 µM) and the MIC [12] was less than 0.5 µg/mL. For the same molecule, the MIC [34] was 16 µg/mL (≈ 95.7 µM), the MIC [35] was 1 µg/mL (≈ 5.98 µM) and the MIC [36] was 0.25 µg/mL (≈ 1.5 µM). The MIC [37] was 0.125 µg/mL (≈ 0.748 µM), the MIC [38] was less than 0.031 µg/mL and the MIC [39] was less than 0.031 µg/mL. The MIC [40] was less than 0.063 µg/mL, the MIC [41] was less than 0.063 µg/mL and the MIC [42] was less than 0.063 µg/mL. For the same molecule, the IC50 [19] was 10 µM, the IC50 [20] was 10 µM and the fold change (FC) [21] was 2. The fold change (FC) [22] was 32, the fold change (FC) [23] was 128 and the fold change (FC) [24] was 16. For the same molecule, the fold change (FC) [25] was greater than 64, the fold change (FC) [26] was greater than 64 and the fold change (FC) [27] was greater than 64. The fold change (FC) [28] was greater than 64, the fold change (FC) [29] was greater than 64 and the fold change (FC) [30] was 64. The fold change (FC) [31] was 64 and the fold change (FC) [32] was greater than 64.

Work on `O=C(Cc1ccccc1)N[C@@H]1C(=O)N2C(C(=O)O)=C(CSCc3ccccc3)CS[C@H]12` yielded an MIC [10] of 16 µg/mL (≈ 35.2 µM), an MIC [11] of 16 µg/mL (≈ 35.2 µM) and an MIC [12] of 16 µg/mL (≈ 35.2 µM). For the same molecule, the MIC [34] was 8 µg/mL (≈ 17.6 µM), the MIC [35] was 8 µg/mL (≈ 17.6 µM) and the MIC [36] was 4 µg/mL (≈ 8.8 µM). For the same molecule, the MIC [37] was 0.5 µg/mL (≈ 1.1 µM), the MIC [38] was 0.25 µg/mL (≈ 0.55 µM) and the MIC [39] was 0.25 µg/mL (≈ 0.55 µM). The MIC [40] was 2 µg/mL (≈ 4.4 µM), the MIC [41] was 2 µg/mL (≈ 4.4 µM) and the MIC [42] was 1 µg/mL (≈ 2.2 µM). The Activity [14] was “inactive”, the Activity [15] was “inactive” and the Activity [16] was “inactive”. The IC50 [17] was 43 µM, the IC50 [18] was 45 µM and the IC50 [20] was 73 µM. The Km [43] was 20.5 µM, the kcat [44] was 10.8 s⁻¹ and the kcat/Km [45] was 0.529 µM⁻¹ s⁻¹. The fold change (FC) [21] was 4, the fold change (FC) [22] was 4 and the fold change (FC) [23] was 8. For the same molecule, the fold change (FC) [24] was 4, the fold change (FC) [25] was 8 and the fold change (FC) [26] was 8. The fold change (FC) [27] was 2, the fold change (FC) [28] was 2 and the fold change (FC) [29] was 4. The fold change (FC) [30] was 2, the fold change (FC) [31] was 2 and the fold change (FC) [32] was 2. For the same molecule, the Activity [33] was “inactive”.

Source: ChEMBL document CHEMBL5034010, “Novel Cephalosporin Conjugates Display Potent and Selective Inhibition of Imipenemase-Type Metallo-β-Lactamases” (J Med Chem, 2021)
